For 25 molecules, IC50 and MTD results are on record in patent publication US10421754B2, “Quinazoline derivative” (CSPC ZHONGQI PHARMACEUTICAL TECHNOLOGY (SHIJIAZHUANG) CO., …, priority 2014, dated 2019).

For series [1], the system named is A431. The experiment in a line: In vitro cell experiment (MTT), A431. Type of series: cell-based. Particulars: A-431, 72 h, human epidermoid carcinoma (EGFR1 overexpressing). How it is done: (§1) Cells in logarithmic growth phase were seeded at a certain density in a 96-well plate (200 μL/well). The cells were allowed to grow for 24 h and subsequently treated with different concentrations of drugs (including a blank group and a control group) and incubated for 72 h at 37° C. Each concentration in a given experiment was tested in triplicate. After 72 h of exposure, 20 μL of the MTT labeling reagent was added to the medium (the final concentration of MTT was 0.5 mg/mL), and the cells were incubated for additional 4 h at 37° C. Following this process, 180 μL of the medium was removed and 130 μL of DMSO was added to each well, or the medium was completely removed and 150 μL of DMSO was added to each well. Then the plate was shaken and mixed in a micro-oscillator. Finally the optical density (OD) of each sample was measured in a micro-plate reader at 550 nm. Cell inhibition rate was calculated according to the following formula: […]
(§2) According to cell inhibition rates, IC50 was calculated by LOGIT method. The experiments were repeated twice and the data was expressed as means±SD.

Series [2] concerns HT-29. The experiment in a line: In vitro cell experiment (MTT), HT-29. Format: cell-based. The following applies: 72 h, human colon carcinoma cells (expressing both c-KIT and PDGFR). On the procedure: as §1, §2
A short description of series [3]: Mouse maximum tolerated dose (MTD) experiment. Particulars: in vivo, mice, oral, administered 7 days then observed 7 days. On the procedure:
In the mouse MTD experiment, the mice were administrated with the present compounds.
Healthy mice, having a small difference in body's weights, were chosen. The chosen mice were placed in different layers of cages according to their body's weights. In each layer, the mice were randomly divided into groups. In each group, there were three mice.
The administration dosages were 1000, 500, 250, 125, 62.5 and 31.25 mg/kg respectively and each two dosages differed by a factor of 2. For each of administration dosages, three mice were allotted. The mice were administrated with the present compounds for 7 days and then observed for the next 7 days without the present compounds.
The present compounds were orally administrated with the mice according to the administration dosage and the body weight.

Series [4] concerns HCT116. The series is described as follows: In vitro cell experiment (MTT), HCT116. Format: cell-based. The following applies: HCT-116, 72 h, human colon carcinoma cells. How it is done: as §1, §2
The subject of series [5] is SK-OV-3. The series is described as follows: In vitro cell experiment (MTT), SK-OV-3. Type of series: cell-based. The following applies: 72 h, human ovarian carcinoma cells (EGFR2 overexpressing). On the procedure:
as §1, §2

The test system of series [6] is H292. The experiment in a line: In vitro cell experiment (MTT), H292. Type of series: cell-based. The following applies: NCI-H292, 72 h, human lung carcinoma cells (EGFR1 overexpressing). On the procedure:
as §1, §2

Series [7] relates to HUVEC. The series is described as follows: In vitro cell experiment (MTT), HUVEC. Type of series: cell-based. Particulars: 72 h, human umbilical vein endothelial cell (KDR overexpressing). How it is done:
as §1, §2

Series [8] relates to A549. The experiment in a line: In vitro cell experiment (MTT), A549. Format: cell-based. Particulars: 72 h, human non-small-cell lung carcinoma cells (EGFR1 wildtype). On the procedure: as §1, §2
The test system of series [9] is HCC827. The series is described as follows: In vitro cell experiment (MTT), HCC827. Type of series: cell-based. The following applies: 72 h, human non-small cell lung carcinoma (EGFR1 19 exon mutation). On the procedure: as §1, §2
Series [10] has as its system Bel-7402. The series is described as follows: In vitro cell experiment (MTT), Bel-7402. The following applies: 72 h, human hepatoma carcinoma cells. Format: cell-based. On the procedure: as §1, §2
Series [11] concerns 3T3swiss. The experiment in a line: In vitro cell experiment (MTT), 3T3swiss. Type of series: cell-based. The following applies: Fibroblast, 72 h, mouse fibroblasts (PDGFR overexpressing). How it is done: as §1, §2
The test system of series [12] is PC-9. The experiment in a line: In vitro cell experiment (MTT), PC-9. Format: cell-based. The following applies: 72 h, human non-small-cell lung carcinoma cells (EGFR1 19 exon mutation). On the procedure: as §1, §2

The IC50 is the concentration that gives 50% inhibition. Read a high IC50 as a need for much substance. Broadly, the MTD is the largest dose that counted as tolerated. Low values mean poorer tolerability, high ones better tolerability. For `COc1cc2c(Nc3ccc(Br)cc3F)ncnc2cc1OCc1ccc2c(c1)OCO2` [Compound 1, 4-(4-bromo-2-fluoroanilino)-6-methoxy-7-((1,3-benzodioxole-5-yl)methoxy)quinazoline], the IC50 stood at 1410 nM in series [1] and 2820 nM in [2]. This molecule showed an MTD in series [3] of 500 to 1000 mg/kg.

For `COc1cc2c(Nc3ccc(Br)cc3F)ncnc2cc1OCc1cccc(C#N)c1` [Compound 3, 4-(4-bromo-2-fluoroanilino)-6-methoxy-7-(3-cyanobenzyloxy) quinazoline], the values for the half-inhibitory concentration (IC50) in series [4] and in [5] were 892 nM and 2020 nM, respectively. For the same molecule, the MTD in [3] lay in the range of 500 to 1000 mg/kg.

Turning to `COc1cc2c(Nc3ccc(Br)cc3F)ncnc2cc1OCc1ccc(C(F)(F)F)cc1` [Compound 5, 4-(4-bromo-2-fluoroanilino)-6-methoxy-7-(4-trifluoromethyl-benzyloxy)quinazoline], in series [4], the IC50 came out at 1040 nM.

Regarding `COc1cc2c(Nc3ccc(Br)cc3F)ncnc2cc1OCCCCCC(N)=O` [Compound 6, 6-(4-(4-bromo-2-fluoroanilino)-6-methoxyquinazolin-7-yl-oxy)hexanamide], the IC50 was found to be 46.9 nM in series [6]; 2100 nM in series [1]; 37.6 nM in series [7]; 2650 nM in series [5]; 3930 nM in series [8]; 4.7 nM in series [9]. Moreover, the MTD in series [3] is > 1000 mg/kg.

In [9], `COc1cc2c(Nc3ccc(Br)cc3F)ncnc2cc1OCc1cccc(C)n1` [Compound 7, 4-(4-bromo-2-fluoroanilino)-6-methoxy-7-((6-methylpyridine-2-yl)methoxy)quinazoline] had a half-maximal inhibitory concentration (IC50) of 8.6 nM. In addition, the maximal tolerated dose (MTD) in series [3] lay in the range of 62.5 to 125 mg/kg.

`COc1cc2c(Nc3ccc(Br)cc3F)ncnc2cc1OCCn1c(C)nc2ccccc21` [Compound 8, 4-(4-bromo-2-fluoroanilino)-6-methoxy-7-(2-(2-methyl-1H-benzo[d]imidazole-1-yl)ethoxy)quinazoline]: half-maximal inhibition in series [5] (IC50) was put at 2770 nM.

Molecule `COc1cc2c(Nc3ccc(Br)cc3F)ncnc2cc1OCc1ccc(N2CCOCC2)cc1` [Compound 12, 4-(4-bromo-2-fluoroanilino)-6-methoxy-7-(4-morpholinobenz-yloxy)quinazoline] gave an IC50 in series [4] of 1090 nM. This counts as single-digit micromolar.

For the molecule `COc1cc2c(Nc3ccc(Br)cc3F)ncnc2cc1OCC1CCOCC1` [Compound 15, 4-(4-bromo-2-fluoroanilino)-6-methoxy-7-((tetrahydropyran-4-yl)methoxy)quinazoline], the half-maximal inhibitory concentration (IC50) in [1] amounted to 2950 nM.

As for `COc1cc2c(Nc3ccc(Br)cc3F)ncnc2cc1OCc1csc(C)n1` [Compound 17, 4-(4-bromo-2-fluoroanilino)-6-methoxy-7-((2-methylthiazole-4-yl)methoxy)quinazoline], the midpoint of inhibition in [9], the IC50, lay at 6.7 nM. Also, the MTD in series [3] was 500 to 1000 mg/kg.

In turn, `COc1cc2c(Nc3ccc(Br)cc3F)ncnc2cc1Oc1ccc(C(=O)N2CCOCC2)cn1` [Compound 18, (6-(4-(4-bromo-2-fluoroanilino)-6-methoxyquinazolin-7-yl-oxy)pyridine-3-yl)(morpholino)methanone] gave an IC50 in series [4] of 962 nM.

For `COc1cc2c(Nc3ccc(F)c(Cl)c3)ncnc2cc1OCCN1CCCC1` [Compound 20, 4-(3-chloro-4-fluoroanilino)-6-methoxy-7-(2-(pyrrolidine-1-yl)ethoxy)quinazoline], the IC50 in [1] turned out to be 2140 nM; in series [2], 2230 nM; in [10], 5740 nM; in series [8], 2680 nM; in [9], 2.9 nM; in series [11], 1720 nM. Also, the maximal tolerated dose (MTD) in series [3] was in the range of 125 to 250 mg/kg.

`COc1cc2c(Nc3ccc(Br)cc3F)ncnc2cc1OCCCC(N)=O` [Compound 23, 4-(4-(4-bromo-2-fluoroanilino)-6-methoxyquinazolin-7-yl-oxy)butanamide]: the half-inhibitory concentration (IC50) in [5] is 3360 nM; in [8] it was 1410 nM; in [9], 5 nM; in series [11] it was 2150 nM.

For `COc1cc2c(Nc3ccc(F)c(Cl)c3)ncnc2cc1OCCCCCC(N)=O` [Compound 24, 6-(4-(3-chloro-4-fluoroanilino)-6-methoxyquinazolin-7-yl-oxy)hexanamide], the IC50 in series [6] stood at 81.8 nM; in series [2] it was 1840 nM; in series [5], 2450 nM; in [8], 2940 nM; in [9], 5.6 nM. Also, the MTD in series [3] fell in the range of 125 to 250 mg/kg.

The molecule `COc1cc2c(Nc3ccc(F)c(Cl)c3)ncnc2cc1OCCCn1ccnc1` [Compound 25, 4-(3-chloro-4-fluoroanilino)-6-methoxy-7-(3-(1H-imidazole-1-yl)propoxy)quinazoline] yielded a 50% inhibitory concentration (IC50) in [9] of 2.6 nM. This counts as single-digit nanomolar.

In [9], `COc1cc2c(Nc3ccc(Br)cc3F)ncnc2cc1OCCc1csc(C)n1` [Compound 26, 4-(4-bromo-2-fluoroanilino)-6-methoxy-7-(2-(2-methylthiazol-4-yl)ethoxy)quinazoline] showed an IC50 of 1.4 nM.

Turning to `COc1cc2c(Nc3ccc(F)c(Cl)c3)ncnc2cc1OCc1cnc(C)s1` [Compound 27, 4-(3-chloro-4-fluoroanilino)-6-methoxy-7-((2-methylthiazol-5-yl)methoxy)quinazoline], the half-inhibitory concentration (IC50) in series [6] is 78.3 nM; in [2], 2920 nM; in [8] it was 3890 nM; in series [9], 4.6 nM. In series [3], this molecule displayed an MTD of 500 to 1000 mg/kg.

Molecule `COc1cc2c(Nc3ccc(F)c(Cl)c3)ncnc2cc1OCc1csc(C)n1` [Compound 27′, 4-(3-chloro-4-fluoroanilino)-6-methoxy-7-((2-methylthiazol-4-yl)methoxy)quinazoline] yielded a half-inhibitory concentration (IC50) in series [9] of 6.2 nM. In other words, the single-digit nanomolar range.

`CNC(=O)CCCCCOc1cc2ncnc(Nc3ccc(Br)cc3F)c2cc1OC` [Compound 31, N-methyl-6-(4-(4-bromo-2-fluoroanilino)-6-methoxyquinazolin-7-yloxy)hexanamide] returned an IC50 in series [9] of 10.7 nM.

For the molecule `COc1cc2c(Nc3ccc(Br)cc3F)ncnc2cc1OCCCCCC(=O)N(C)C` [Compound 32, N, N-dimethyl-6-(4-(4-bromo-2-fluoroanilino)-6-methoxyquinazolin-7-yloxy)hexanamide], the IC50 was determined as 2700 nM in [8], 6.7 nM in series [12] and 11 nM in series [9]. Further, the maximal tolerated dose (MTD) in [3] lay within 500 to 1000 mg/kg.

As for `COc1cc2c(Nc3ccc(Br)cc3F)ncnc2cc1OCCCCC(N)=O` [Compound 33, 5-(4-(4-bromo-2-fluoroanilino)-6-methoxyquinazolin-7-yl-oxy)pentanamide], the IC50 in series [6] was 73.4 nM; in series [8], 3570 nM; in series [12], 8.3 nM; in series [9], 9.5 nM. The molecule also had a maximum tolerated dose (MTD) in [3] of 62.5 to 125 mg/kg.

For `COc1cc2c(Nc3ccc(Br)cc3F)ncnc2cc1OCCn1ccnc1` [Compound 34, 4-(4-bromo-2-fluoroanilino)-6-methoxy-7-(2-(1H-imidazol-1-yl)ethoxy)quinazoline], the 50% inhibitory concentration (IC50) in series [6] was determined as 90.8 nM; in series [8], 1290 nM; in series [12], 5.7 nM; in series [9], 8.2 nM. This molecule also gave an MTD in series [3] of 125 to 250 mg/kg.

For `COc1cc2c(Nc3ccc(F)c(Cl)c3)ncnc2cc1OCCn1ccnc1` [Compound 36, 4-(3-chloro-4-fluoroanilino)-6-methoxy-7-(2-(1H-imidazol-1-yl)ethoxy)quinazoline], the values for the IC50 in series [5] and in series [8] were 2920 nM and 3640 nM, respectively.

With `COc1cc2c(Nc3ccc(F)c(Cl)c3)ncnc2cc1OCCCCC(N)=O` [Compound 41, 5-(4-(3-chloro-4-fluoroanilino)-6-methoxyquinazolin-7-yl-oxy)pentanamide], the concentration for half-maximal inhibition (IC50) in series [6] was 89.9 nM; in series [5], 2680 nM; in series [8] it was 2710 nM; in [9], 0.9 nM.

With `CNC(=O)CCCCCOc1cc2ncnc(Nc3ccc(F)c(Cl)c3)c2cc1OC` [Compound 42, N-methyl-6-(4-(3-chloro-4-fluoroanilino)-6-methoxyquinazolin-7-yloxy)hexanamide], the IC50 in series [9] stood at 2.8 nM.

In turn, `COc1cc2c(Nc3ccc(F)c(Cl)c3)ncnc2cc1OCCCCCC(=O)N(C)C` [Compound 43, N, N-dimethyl-6-(4-(3-chloro-4-fluoroanilino)-6-methoxyquinazolin-7-yloxy)hexanamide] came in with an IC50 in [9] of 4.1 nM.
